Experimental data as given in PMC10895676, “Antiviral Activity of Lipophilic Nucleoside Tetraphosphate Compounds” (Journal of Medicinal Chemistry, 2024).
Read-outs that look alike come from different tables or passages of the source.

Tests used:
[1] = Hydrolysis in CEM/0 cell extracts; format: in vitro ADME; details: human
Experimental: Next, TetraPPPPro-nucleotides 4–9 were incubated in human CD4^+ T-lymphocyte CEM/0 cell extracts to study their stability and identify the hydrolysis products.
CEM cells were grown in RPMI-1640-based cell culture medium to a final density of ∼3 × 10^6 cells/mL. Cells were centrifuged for 10 min at 1250 rpm at 4 °C and washed twice with cold PBS, and the pellet was resuspended at 10^8 cells/mL and sonicated (Hielscher Ultrasound Techn., 100% amplitude, 3·times for 10 s) to destroy cell integrity. Next, the resulting cell suspension was centrifuged at 10,000 rpm to remove cell debris. Finally, the supernatant was divided into aliquots and frozen at −80 °C.
6.0 mM hydrolysis solutions of compounds 4–9 were prepared from 21 μL of 50 mM DMSO stock solutions and 154 μL of DMSO. Two different samples, including 10 μL of water and 10 μL of 6.0 mM hydrolysis solution, were prepared in 2 mL Eppendorf vials. Next, 50 μL of human CEM cell extracts or 50 μL of human citrate plasma were added to the mixture, the reaction was started, and the mixture was incubated at 37 °C for different time periods. The reactions were stopped by the addition of 150 μL of MeOH. The resulting suspension was kept on ice for 5 min, followed by defrosting and centrifugation at 14,000 rpm (Heraeus, Biofuge Pico) for 22 min. The supernatants (80 or 60 μL) were directly injected into HPLC. The calculation of t1/2 was performed analogously to that for the chemical hydrolysis studies.

HIV-RT = target: T1, HIV-RT (Human immunodeficiency virus type 1 group M subtype B, UniProt P03366); assay: Primer extension assay using HIV-RT; format: biochemical; details: 30 min, 6 U HIV-RT, 37 °C
T1 construct: HIV-RT HIV reverse transcriptase; purchased Roboklon
Experimental: Figure 6 Primer extension assay using HIV-RT (A), human polymerases α (B), β (C), and γ (D). (Figure 6A). Primer extension assay using HIV-RT (30 min, 6U). Lane 1: (+) dATP, dCTP, dGTP, and TTP with HIV-RT. Lane 2: (−) dATP, dCTP, dGTP, and TTP without HIV-RT. Lane 3: TTP. […] Lane 5: δ-(C4; C18)-d4T4P 4d. […] Lane 7: δ-(C18)-d4T4P 20. Lane 8: δ-C-(C18)-d4T4P 24. Lane 9: d4T4P. Lane 10: d4TTP. Lane 11: d4TDP. HIV-RT assay reaction conditions: 50 mM Tris–HCl (pH 8.6), 10 mM MgCl2, 40 mM KCl, 250 μM dNTPs, HIV-RT (6 U), 0.20 μM DNA hybrid, primer-template-hybrid 0.32 mM in a reaction volume of 10 μL, incubated at 37 °C for 0.5 h, 80 °C for 7 min. Primer extension assays: 50 mA, 45 w for 4 h. (Figure 6B). For human DNA polymerase α assay (60 min, 2 U): Lane 1: (+) dATP, dCTP, dGTP, and TTP with human polymerase α. Lane 2: (−) dATP, dCTP, dGTP, and TTP without human polymerase α. Lane 3: TTP. […] Lane 5: δ-(C4; C18)-d4T4P 4d. […] Lane 7: δ-(C18)-d4T4P 20. Lane 8: δ-C-(C18)-d4T4P 24. Lane 9: d4T4P. Lane 10: d4TTP. Human DNA polymerase α assay conditions: 60 mM Tris–HCl (pH 8), 5 mM Mg(OAc)2, 100 mM KCl, 1.0 mM dithiothreitol, 0.1 mM spermine, 0.01% (w/v) bovine serum albumin, 250 μM dNTPs, 2 U human polymerase α, 0.20 μM DNA hybrid, and primer-template-hybrid 0.32 mM in a reaction volume of 10 μL, incubated at 37 °C for 1 h, 80 °C for 7 min. Primer extension assays: 50 mA, 45 w for 3 h. (Figure 6C). For human DNA polymerase β assay (60 min, 2 U): Lane 1: (+) dATP, dCTP, dGTP, and TTP with human polymerase β. Lane 2: (−) dATP, dCTP, dGTP, and TTP without human polymerase β. Lane 3: TTP. […] Lane 5: δ-(C4; C18)-d4T4P 4d. […] Lane 7: δ-(C18)-d4T4P 20. Lane 8: δ-C-(C18)-d4T4P 24. Lane 9: d4T4P. Lane 10: d4TTP. Human DNA polymerase β assay conditions: 50 mM Tris–HCl (pH 8.7), 10 mM Mg(OAc)2, 100 mM KCl, 1.0 mM dithiothreitol, 0.1 mM spermine, 0.01% (w/v) bovine serum albumin, 15% glycerol, 250 μM dNTPs, 2 U human DNA polymerase β, 0.20 μM DNA hybrid, and primer-template-hybrid 0.32 mM in a reaction volume of 10 μL, incubated at 37 °C for 1 h, 80 °C for 7 min. Primer extension assays: 50 mA, 45 w for 3 h. (Figure 6D), For the human DNA polymerase γ assay (120 min, 2 U): Lane 1: (+) dATP, dCTP, dGTP, and TTP with human polymerase γ. Lane 2: (−) dATP, dCTP, dGTP, and TTP without human polymerase γ. Lane 3: TTP. […] Lane 5: δ-(C4; C18)-d4T4P 4d. […] Lane 7: δ-(C18)-d4T4P 20. Lane 8: δ-C-(C18)-d4T4P 24. Lane 9: d4T4P. Lane 10: d4TTP. Human polymerase γ assay conditions: 60 mM Tris–HCl (pH 8), 5 mM Mg(OAc)2, 1.0 mM dithiothreitol, 0.1 mM spermine, 0.01% (w/v) bovine serum albumin, 250 μM dNTPs, 2 U human polymerase γ, 0.5 μM MnCl2, 0.20 μM DNA hybrid, primer-template-hybrid 0.32 mM in a reaction volume of 10 μL, incubated at 37 °C for 2 h, 80 °C for 7 min. Primer extension assays: 50 mA, 45 w for 3 h.
HIV-RT and human polymerases α, β, and γ were bought from Roboklon and Chimerx. The fluorescent-labeled primer and template were obtained from Metabion.
For the annealing of the primer/template mixture, 40 μL of the 10 μM primer and 60 μL of the 10 μM template were incubated for 5 min at 95 °C. Then, for optimal annealing, the temperature was reduced over a period of 2 h to 20 °C and incubated again for 20 min at 20 °C.
For the primer extension, the reaction mixture was incubated for 30 min for the HIV-RT, 60 min for the human DNA polymerase α, and 120 min for the human DNA polymerases β and γ at 37 °C, followed by 7 min at 80 °C.

[2] = 37 °C, read-out: CEM/0 cell extracts t1/2 (converted)

Cc1cn([C@H]2C=C[C@@H](COP(=O)(O)OP(=O)(O)OP(=O)(O)OP(=O)(O)O)O2)c(=O)[nH]c1=O [d4T4P, 2′,3′-didehydro-2′,3′-dideoxythymidine-5′-tetraphosphate]
half-life at 0.86 mM [1, 2]: 22.2 min
half-life at 0.86 mM ([1]; dephosphorylation, read-out: t1/2 in CEM/0 cell extracts): 22 min
substrate for HIV-RT (primer extension) (HIV-RT): substrate

CCCCCCCCCCCCCCCCCCP(=O)(O)OP(=O)(O)OP(=O)(O)OP(=O)(O)OC[C@@H]1C=C[C@H](n2cc(C)c(=O)[nH]c2=O)O1 [compound 24, δ-C-(Alkyl-C18)-d4T4P]
half-life at 0.86 mM [1, 2]: > 1800 min
substrate for HIV-RT (primer extension) (HIV-RT): substrates

CCCCCCCCCCCCCCCCCCP(=O)(OCCCC)OP(=O)(O)OP(=O)(O)OP(=O)(O)OC[C@@H]1C=C[C@H](n2cc(C)c(=O)[nH]c2=O)O1 (some centres unmarked) [5a, δ-(Alkyl-C4)-δ-C-(alkyl-C18)-d4T4P]
half-life at 0.86 mM [1, 2]: > 1200 min
substrate for HIV-RT (primer extension) (HIV-RT): good substrates

CCCCCCCCCCCCCCCCCCOP(=O)(O)OP(=O)(O)OP(=O)(O)OP(=O)(O)OC[C@@H]1C=C[C@H](n2cc(C)c(=O)[nH]c2=O)O1 [compound 20, δ-(Alkyl-C18)-d4T4P]
half-life at 0.86 mM [1, 2]: > 480 min
substrate for HIV-RT (primer extension) (HIV-RT): substrates

CCCCCCCCCCCCCCCCCCOP(=O)(OCCCC)OP(=O)(O)OP(=O)(O)OP(=O)(O)OC[C@@H]1C=C[C@H](n2cc(C)c(=O)[nH]c2=O)O1 (some centres unmarked) [4d, δ-(Alkyl-C4; alkyl-C18)-d4T4P]
half-life at 0.86 mM [1, 2]: > 1200 min
substrate for HIV-RT (primer extension) (HIV-RT): good substrates
